Reference: ChEMBL document CHEMBL1125481, “N-[4-[[(3,4-dihydro-4-oxo-1,2,3-benzotriazin-6-yl)methyl]amino]benzoyl]-L-glutamic acid, a novel A-ring analogue of 2-desamino-5,8-dideazafolic acid” (J Med Chem, 1992)

How the values were obtained:
L1210 [1] = assay: Growth inhibitory activity on mouse L1210 cell culture; type: functional, cell-based
L1210 [2] = assay: Growth inhibitory activity on L1210 cell culture in the presence of 5.6 uM thymidine(dThd); type: functional, cell-based; settings: Mus musculus
Thymidylate synthase = Thymidylate synthase (Mus musculus, UniProt P07607); assay: Compound was tested for the inhibition of recombinant mouse thymidylate synthase, competitive with 5,10-methylenetetrahydrofolate as variable substrate
Sequence of Thymidylate synthase (P07607 whole entry): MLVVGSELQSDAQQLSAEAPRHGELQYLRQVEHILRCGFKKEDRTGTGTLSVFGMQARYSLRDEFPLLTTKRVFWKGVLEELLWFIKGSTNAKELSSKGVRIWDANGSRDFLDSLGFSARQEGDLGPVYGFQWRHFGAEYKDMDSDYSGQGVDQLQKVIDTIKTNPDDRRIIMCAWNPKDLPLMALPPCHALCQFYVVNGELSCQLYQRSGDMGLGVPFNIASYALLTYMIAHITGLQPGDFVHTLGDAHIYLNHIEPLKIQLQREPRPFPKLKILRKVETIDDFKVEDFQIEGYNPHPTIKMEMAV

L1210 [3] = assay: Growth inhibitory activity on L1210 cell culture in the presence of 32 uM hypoxanthine (Hx); type: functional, cell-based; settings: Mus musculus
[4] = target: Thymidylate synthase (Mus musculus) (UniProt P07607); assay: Binding affinity towards thymidylate synthase (TS)
Sequence of Thymidylate synthase (Mus musculus) (P07607 whole entry, looked up): as the sequence (P07607 whole entry) above

[5] = substrate: O=C(O)CCC(NC(=O)c1ccc(NCc2ccc3nnnc(O)c3c2)cc1)C(=O)O
[6] = substrate: O=C(O)CCC(NC(=O)c1ccc(NCc2ccc3ncnc(O)c3c2)cc1)C(=O)O; assay: (§1) Kinetic characteristic of compound for mouse liver FPGS(in vitro)
[7] = substrate: Nc1nc(O)c2cc(CNc3ccc(C(=O)NC(CCC(=O)O)C(=O)O)cc3)ccc2n1; assay: as §1

Question: How did the IC50 (L1210 [1]) turn out when O=C(O)CCC(NC(=O)c1ccc(NCc2ccc3ncnc(O)c3c2)cc1)C(=O)O (stereo not given) was run?
Answer: 430 nM

Question: Which IC50 (L1210 [2]) does the source give for O=C(O)CCC(NC(=O)c1ccc(NCc2ccc3nnnc(O)c3c2)cc1)C(=O)O (stereo not given) here?
Answer: 890 nM

Question: And the IC50 (L1210 [1])?
Answer: 520 nM

Question: What about the Ki (Thymidylate synthase) of the same molecule?
Answer: 2300 nM

Question: What about the IC50 (L1210 [3]) of the same molecule?
Answer: 970 nM

Question: And the Ki [4]?
Answer: 2300 nM

Question: How did the IC50 (L1210 [1]) turn out when Nc1nc(O)c2cc(CNc3ccc(C(=O)NC(CCC(=O)O)C(=O)O)cc3)ccc2n1 (stereo not given) [DIDEAZAFOLATE] was run?
Answer: 2700 nM

B1: Folylpolyglutamate synthase, mitochondrial (Mus musculus), P48760 (protein)
chain: MSWARSRLCSTLSLAAVSARGATTEGAARRGMSAWPAPQEPGMEYQDAVRTLNTLQTNASYLEQVKRQRSDPQAQLEAMEMYLARSGLQVEDLNRLNIIHVTGTKGKGSTCAFTERILRNYGLKTGFFSSPHMVQVRERIRINGKPISPELFTKHFWCLYNQLEEFKDDSHVSMPSYFRFLTLMAFHVFLQEKVDLAVVEVGIGGAFDCTNIIRKPVVCGVSSLGIDHTSLLGDTVEKIAWQKGGIFKPGVPAFTVVQPEGPLAVLRDRAQQIGCPLYLCPPLEALEEVGLPLSLGLEGAHQRSNAALALQLAHCWLERQDHQDIQELKVSRPSIRWQLPLAPVFRPTPHMRRGLRDTVWPGRTQILQRGPLTWYLDGAHTTSSVQACVHWYRQSLERSKRTDGGSEVHILLFNSTGDRDSAALLKLLQPCQFDYAVFCPNVTEVSSIGNADQQNFTVTLDQVLLRCLQHQQHWNGLAEKQASSNLWSSCGPDPAGPGSLLLAPHPPQPTRTSSLVFSCISHALLWISQGRDPIFQPQSLPRNLLNHPTANSGASILREAAAIHVLVTGSLHLVGGVLKLLDPSMSQ
Question: What does the source list for B1?
Answer: Km [5]: 28 µM; Km [6]: 4.8 µM; Km [7]: 6.4 µM
